According to the OligoGym collection:
Oligonucleotides are given in HELM: sugar(base)linkage, 5' to 3'; d 2'-deoxyribose, r ribose, m 2'-O-methylribose, p phosphate. ss, as = sense and antisense strand

The substances below were run against UBE2N (assay: reporter assay of Huesken 2005). Conditions: siRNA.
Also: test concentration or dose not given here.

Going from “RNA1{r(A)p.r(U)p.r(C)p.r(A)p.r(U)p.r(C)p.r(C)p.r(U)p.r(A)p.r(A)p.r(U)p.r(G)p.r(U)p.r(A)p.r(G)p.r(A)p.r(C)p.r(A)p.r(A)p.d(T)p.d(T)}|RNA2{r(U)p.r(U)p.r(G)p.r(U)p.r(C)p.r(U)p.r(A)p.r(C)p.r(A)p.r(U)p.r(U)p.r(A)p.r(G)p.r(G)p.r(A)p.r(U)p.r(G)p.r(A)p.r(U)p.d(A)p.d(A)}$$$RNA1{StrandType:ss}|RNA2{StrandType:as}$” to “RNA1{r(A)p.r(U)p.r(C)p.r(C)p.r(G)p.r(C)p.r(A)p.r(C)p.r(A)p.r(G)p.r(U)p.r(U)p.r(C)p.r(U)p.r(G)p.r(C)p.r(U)p.r(A)p.r(U)p.d(T)p.d(T)}|RNA2{r(A)p.r(U)p.r(A)p.r(G)p.r(C)p.r(A)p.r(G)p.r(A)p.r(A)p.r(C)p.r(U)p.r(G)p.r(U)p.r(G)p.r(C)p.r(G)p.r(G)p.r(A)p.r(U)p.d(C)p.d(T)}$$$RNA1{StrandType:ss}|RNA2{StrandType:as}$”, the normalised inhibition (eCFP-eYFP dual reporter) rises from 46.4% to 54.2%.

Going from “RNA1{r(A)p.r(U)p.r(G)p.r(U)p.r(C)p.r(U)p.r(A)p.r(G)p.r(A)p.r(U)p.r(A)p.r(U)p.r(U)p.r(U)p.r(U)p.r(G)p.r(A)p.r(A)p.r(A)p.d(T)p.d(T)}|RNA2{r(U)p.r(U)p.r(U)p.r(C)p.r(A)p.r(A)p.r(A)p.r(A)p.r(U)p.r(A)p.r(U)p.r(C)p.r(U)p.r(A)p.r(G)p.r(A)p.r(C)p.r(A)p.r(U)p.d(A)p.d(T)}$$$RNA1{StrandType:ss}|RNA2{StrandType:as}$” to “RNA1{r(A)p.r(U)p.r(G)p.r(U)p.r(G)p.r(G)p.r(U)p.r(C)p.r(A)p.r(U)p.r(U)p.r(G)p.r(C)p.r(U)p.r(G)p.r(G)p.r(C)p.r(C)p.r(C)p.d(T)p.d(T)}|RNA2{r(G)p.r(G)p.r(G)p.r(C)p.r(C)p.r(A)p.r(G)p.r(C)p.r(A)p.r(A)p.r(U)p.r(G)p.r(A)p.r(C)p.r(C)p.r(A)p.r(C)p.r(A)p.r(U)p.d(G)p.d(A)}$$$RNA1{StrandType:ss}|RNA2{StrandType:as}$”, the normalised inhibition (eCFP-eYFP dual reporter) falls from 75.9% to 47.1%.

First: RNA1{r(A)p.r(U)p.r(U)p.r(A)p.r(G)p.r(C)p.r(A)p.r(A)p.r(A)p.r(U)p.r(G)p.r(A)p.r(U)p.r(G)p.r(U)p.r(A)p.r(G)p.r(C)p.r(G)p.d(T)p.d(T)}|RNA2{r(C)p.r(G)p.r(C)p.r(U)p.r(A)p.r(C)p.r(A)p.r(U)p.r(C)p.r(A)p.r(U)p.r(U)p.r(U)p.r(G)p.r(C)p.r(U)p.r(A)p.r(A)p.r(U)p.d(G)p.d(G)}$$$RNA1{StrandType:ss}|RNA2{StrandType:as}$
Second: RNA1{r(A)p.r(U)p.r(U)p.r(U)p.r(A)p.r(U)p.r(C)p.r(A)p.r(U)p.r(C)p.r(C)p.r(U)p.r(A)p.r(A)p.r(U)p.r(G)p.r(U)p.r(A)p.r(G)p.d(T)p.d(T)}|RNA2{r(C)p.r(U)p.r(A)p.r(C)p.r(A)p.r(U)p.r(U)p.r(A)p.r(G)p.r(G)p.r(A)p.r(U)p.r(G)p.r(A)p.r(U)p.r(A)p.r(A)p.r(A)p.r(U)p.d(T)p.d(T)}$$$RNA1{StrandType:ss}|RNA2{StrandType:as}$
The normalised inhibition (eCFP-eYFP dual reporter) of the first is lower: 34.2% for the first, 49.2% for the second.

First: RNA1{r(A)p.r(U)p.r(U)p.r(U)p.r(U)p.r(C)p.r(A)p.r(U)p.r(G)p.r(U)p.r(G)p.r(G)p.r(U)p.r(C)p.r(A)p.r(U)p.r(U)p.r(G)p.r(C)p.d(T)p.d(T)}|RNA2{r(G)p.r(C)p.r(A)p.r(A)p.r(U)p.r(G)p.r(A)p.r(C)p.r(C)p.r(A)p.r(C)p.r(A)p.r(U)p.r(G)p.r(A)p.r(A)p.r(A)p.r(A)p.r(U)p.d(A)p.d(A)}$$$RNA1{StrandType:ss}|RNA2{StrandType:as}$
Second: RNA1{r(C)p.r(A)p.r(A)p.r(A)p.r(U)p.r(G)p.r(A)p.r(U)p.r(G)p.r(U)p.r(A)p.r(G)p.r(C)p.r(G)p.r(G)p.r(A)p.r(G)p.r(C)p.r(A)p.d(T)p.d(T)}|RNA2{r(U)p.r(G)p.r(C)p.r(U)p.r(C)p.r(C)p.r(G)p.r(C)p.r(U)p.r(A)p.r(C)p.r(A)p.r(U)p.r(C)p.r(A)p.r(U)p.r(U)p.r(U)p.r(G)p.d(C)p.d(T)}$$$RNA1{StrandType:ss}|RNA2{StrandType:as}$
The normalised inhibition (eCFP-eYFP dual reporter) of the first is lower: 47.1% for the first, 64.2% for the second.

First: RNA1{r(C)p.r(A)p.r(A)p.r(C)p.r(G)p.r(A)p.r(A)p.r(G)p.r(C)p.r(C)p.r(C)p.r(A)p.r(A)p.r(G)p.r(C)p.r(C)p.r(A)p.r(U)p.r(A)p.d(T)p.d(T)}|RNA2{r(U)p.r(A)p.r(U)p.r(G)p.r(G)p.r(C)p.r(U)p.r(U)p.r(G)p.r(G)p.r(G)p.r(C)p.r(U)p.r(U)p.r(C)p.r(G)p.r(U)p.r(U)p.r(G)p.d(G)p.d(T)}$$$RNA1{StrandType:ss}|RNA2{StrandType:as}$
Second: RNA1{r(C)p.r(A)p.r(A)p.r(C)p.r(G)p.r(C)p.r(C)p.r(C)p.r(G)p.r(U)p.r(U)p.r(A)p.r(U)p.r(U)p.r(U)p.r(U)p.r(C)p.r(A)p.r(U)p.d(T)p.d(T)}|RNA2{r(A)p.r(U)p.r(G)p.r(A)p.r(A)p.r(A)p.r(A)p.r(U)p.r(A)p.r(A)p.r(C)p.r(G)p.r(G)p.r(G)p.r(C)p.r(G)p.r(U)p.r(U)p.r(G)p.d(C)p.d(T)}$$$RNA1{StrandType:ss}|RNA2{StrandType:as}$
The normalised inhibition (eCFP-eYFP dual reporter) of the first is higher: 94% for the first, 87.1% for the second.

First: RNA1{r(C)p.r(A)p.r(G)p.r(U)p.r(G)p.r(G)p.r(A)p.r(A)p.r(G)p.r(A)p.r(C)p.r(C)p.r(A)p.r(A)p.r(C)p.r(G)p.r(A)p.r(A)p.r(G)p.d(T)p.d(T)}|RNA2{r(C)p.r(U)p.r(U)p.r(C)p.r(G)p.r(U)p.r(U)p.r(G)p.r(G)p.r(U)p.r(C)p.r(U)p.r(U)p.r(C)p.r(C)p.r(A)p.r(C)p.r(U)p.r(G)p.d(C)p.d(T)}$$$RNA1{StrandType:ss}|RNA2{StrandType:as}$
Second: RNA1{r(C)p.r(A)p.r(G)p.r(U)p.r(U)p.r(C)p.r(C)p.r(U)p.r(G)p.r(G)p.r(C)p.r(A)p.r(U)p.r(C)p.r(A)p.r(A)p.r(A)p.r(G)p.r(C)p.d(T)p.d(T)}|RNA2{r(G)p.r(C)p.r(U)p.r(U)p.r(U)p.r(G)p.r(A)p.r(U)p.r(G)p.r(C)p.r(C)p.r(A)p.r(G)p.r(G)p.r(A)p.r(A)p.r(C)p.r(U)p.r(G)p.d(G)p.d(T)}$$$RNA1{StrandType:ss}|RNA2{StrandType:as}$
The normalised inhibition (eCFP-eYFP dual reporter) of the first is higher: 78% for the first, 61.4% for the second.

Going from “RNA1{r(C)p.r(A)p.r(U)p.r(A)p.r(G)p.r(A)p.r(A)p.r(A)p.r(C)p.r(A)p.r(G)p.r(C)p.r(U)p.r(A)p.r(G)p.r(A)p.r(G)p.r(C)p.r(A)p.d(T)p.d(T)}|RNA2{r(U)p.r(G)p.r(C)p.r(U)p.r(C)p.r(U)p.r(A)p.r(G)p.r(C)p.r(U)p.r(G)p.r(U)p.r(U)p.r(U)p.r(C)p.r(U)p.r(A)p.r(U)p.r(G)p.d(G)p.d(C)}$$$RNA1{StrandType:ss}|RNA2{StrandType:as}$” to “RNA1{r(C)p.r(A)p.r(U)p.r(C)p.r(A)p.r(A)p.r(A)p.r(G)p.r(C)p.r(C)p.r(G)p.r(A)p.r(A)p.r(C)p.r(C)p.r(A)p.r(G)p.r(A)p.r(U)p.d(T)p.d(T)}|RNA2{r(A)p.r(U)p.r(C)p.r(U)p.r(G)p.r(G)p.r(U)p.r(U)p.r(C)p.r(G)p.r(G)p.r(C)p.r(U)p.r(U)p.r(U)p.r(G)p.r(A)p.r(U)p.r(G)p.d(C)p.d(C)}$$$RNA1{StrandType:ss}|RNA2{StrandType:as}$”, the normalised inhibition (eCFP-eYFP dual reporter) falls from 95.3% to 84.7%.

Going from “RNA1{r(C)p.r(A)p.r(U)p.r(U)p.r(A)p.r(G)p.r(C)p.r(A)p.r(A)p.r(A)p.r(U)p.r(G)p.r(A)p.r(U)p.r(G)p.r(U)p.r(A)p.r(G)p.r(C)p.d(T)p.d(T)}|RNA2{r(G)p.r(C)p.r(U)p.r(A)p.r(C)p.r(A)p.r(U)p.r(C)p.r(A)p.r(U)p.r(U)p.r(U)p.r(G)p.r(C)p.r(U)p.r(A)p.r(A)p.r(U)p.r(G)p.d(G)p.d(A)}$$$RNA1{StrandType:ss}|RNA2{StrandType:as}$” to “RNA1{r(C)p.r(C)p.r(A)p.r(G)p.r(A)p.r(U)p.r(G)p.r(A)p.r(G)p.r(A)p.r(G)p.r(C)p.r(A)p.r(A)p.r(C)p.r(G)p.r(C)p.r(C)p.r(C)p.d(T)p.d(T)}|RNA2{r(G)p.r(G)p.r(G)p.r(C)p.r(G)p.r(U)p.r(U)p.r(G)p.r(C)p.r(U)p.r(C)p.r(U)p.r(C)p.r(A)p.r(U)p.r(C)p.r(U)p.r(G)p.r(G)p.d(T)p.d(T)}$$$RNA1{StrandType:ss}|RNA2{StrandType:as}$”, the normalised inhibition (eCFP-eYFP dual reporter) rises from 30.2% to 65.8%.

First: RNA1{r(C)p.r(C)p.r(A)p.r(U)p.r(U)p.r(A)p.r(G)p.r(C)p.r(A)p.r(A)p.r(A)p.r(U)p.r(G)p.r(A)p.r(U)p.r(G)p.r(U)p.r(A)p.r(G)p.d(T)p.d(T)}|RNA2{r(C)p.r(U)p.r(A)p.r(C)p.r(A)p.r(U)p.r(C)p.r(A)p.r(U)p.r(U)p.r(U)p.r(G)p.r(C)p.r(U)p.r(A)p.r(A)p.r(U)p.r(G)p.r(G)p.d(A)p.d(T)}$$$RNA1{StrandType:ss}|RNA2{StrandType:as}$
Second: RNA1{r(C)p.r(C)p.r(C)p.r(A)p.r(A)p.r(G)p.r(C)p.r(C)p.r(A)p.r(U)p.r(A)p.r(G)p.r(A)p.r(A)p.r(A)p.r(C)p.r(A)p.r(G)p.r(C)p.d(T)p.d(T)}|RNA2{r(G)p.r(C)p.r(U)p.r(G)p.r(U)p.r(U)p.r(U)p.r(C)p.r(U)p.r(A)p.r(U)p.r(G)p.r(G)p.r(C)p.r(U)p.r(U)p.r(G)p.r(G)p.r(G)p.d(C)p.d(T)}$$$RNA1{StrandType:ss}|RNA2{StrandType:as}$
The normalised inhibition (eCFP-eYFP dual reporter) of the first is higher: 77.9% for the first, 60.2% for the second.

Going from “RNA1{r(C)p.r(C)p.r(U)p.r(A)p.r(A)p.r(U)p.r(G)p.r(U)p.r(A)p.r(G)p.r(A)p.r(C)p.r(A)p.r(A)p.r(G)p.r(U)p.r(U)p.r(G)p.r(G)p.d(T)p.d(T)}|RNA2{r(C)p.r(C)p.r(A)p.r(A)p.r(C)p.r(U)p.r(U)p.r(G)p.r(U)p.r(C)p.r(U)p.r(A)p.r(C)p.r(A)p.r(U)p.r(U)p.r(A)p.r(G)p.r(G)p.d(A)p.d(T)}$$$RNA1{StrandType:ss}|RNA2{StrandType:as}$” to “RNA1{r(C)p.r(G)p.r(A)p.r(A)p.r(G)p.r(C)p.r(C)p.r(C)p.r(A)p.r(A)p.r(G)p.r(C)p.r(C)p.r(A)p.r(U)p.r(A)p.r(G)p.r(A)p.r(A)p.d(T)p.d(T)}|RNA2{r(U)p.r(U)p.r(C)p.r(U)p.r(A)p.r(U)p.r(G)p.r(G)p.r(C)p.r(U)p.r(U)p.r(G)p.r(G)p.r(G)p.r(C)p.r(U)p.r(U)p.r(C)p.r(G)p.d(T)p.d(T)}$$$RNA1{StrandType:ss}|RNA2{StrandType:as}$”, the normalised inhibition (eCFP-eYFP dual reporter) rises from 69.4% to 84.1%.
